How the values were obtained:
C57BL/6J mouse islets = assay: GSIS and GSCa of islets isolated from siRNA-injected mice; format: cell-based
Protocol: To clarify this, islets were isolated from siRNA-injected mice and their function assessed in vitro. […] In order to further characterize this improvement in islet glucose responsiveness, glucose-stimulated Ca2+ mobilization (GSCa) studies were also performed. GSCa is a measure of islet glucose sensitivity that captures the dynamics of the islet glucose response, which is similar to GSIS (31). The GSCa, as measured by the change in fura-2 AM fluorescence ratio after glucose stimulation, was increased in si-eIF5A-treated islets compared to controls, reflecting the functional improvement seen in GSIS (FIG. 3D). This improved GSCa relative to controls persisted 48 and 72 hours post-isolation (data not shown).
A short cytokine exposure (4 h) was utilized to assess early impairment in islet function independent of islet cell death. […] As shown in the inset to FIG. 3E, eIF5A levels remained persistently lower in the si-eIF5A group even after cytokine exposure.
Cytokine and inhibitor incubation studies: For cytokine incubation assays, a 1000× cocktail of cytokines containing 5 μg/ml IL1β, 10 μg/ml TNFα, and 100 μg/ml IFNγ (all prepared in 0.1% BSA in Tris-buffered saline) was applied at 1× final concentration to groups of 50 islets or 1×10^6 INS-1 (832/13) cells for a total of 4 h at 37° C. For GC7 incubation studies, GC7 was prepared at a stock concentration of 125 mM in 10 mM acetic acid and applied to cultures of 50 islets or 1×10^6 INS-1 cells to obtain the final concentrations indicted in the figures. Where needed, GC7 was protected from amine oxidases in serum by addition of 1 mM aminoguanidine (Sigma). Cells were incubated with GC7 overnight (˜16 h) at 37° C. prior to analysis. Cells were exposed to Leptomycin B (Cayman Chemicals) for 3 hours; leptomycin B was prepared at a 1000× stock concentration of 20 μg/ml in ethanol.
GSCa imaging assays: Intracellular Ca^2+ ((Ca2+)i) was measured using the ratiometric Ca^2+ indicator fura-2 AM using a modification of previously published methods (79). The glucose-stimulated (Ca2+)i response (GSCa) was defined as the difference between ratio measurements (340/380 nm fluorescence) in 11 mM vs. 3 mM glucose. Data were analyzed with IP Lab's software version 4.0 (Scanalytics).
GSIS and IPGTT studies: For GSIS studies using isolated islets, approximately 50 islets or 1×10^6 INS-1 cells per condition were washed and incubated in Krebs-Ringer HEPES-buffered (KRB) solution for one hour at 37° C., and then placed in KRB solution containing 3 mM or 11 mM glucose for one hour. […] Blood glucose was measured from samples taken from the tail vein before intraperitoneal injection of 1 g glucose per kg mouse weight, and at 10, 20, 30, 60, 90, 120, and 180 minutes after glucose administration using an A1phaTrak® glucometer (Abbott).

INS-1 cells [1] = assay: Live/dead two-colour fluorescence cytometry of INS-1 cells; format: cell-based, rat
Protocol: (§1) Because GC7 is known to be inactivated by the action amine oxidases, which are abundant in serum, typical studies with GC7 in the literature have used aminoguanidine to inhibit amine oxidases (16). […] To rule out possible adverse effects of GC7 on cell viability, quantitative 2 color fluorescence analysis of live (calcein-AM-positive) and dead (ethidium homodimer-1-positive) cells were performed using fluorescence cytometry.
(§2) For flow cytometry studies, INS-1 cells (serum starved or pretreated with GC7 as indicated in the figures) were stained with calcein-AM and ethidium homodimer 1 (Live/Dead® kit, Invitrogen) for 30 minutes, and 30,000 cells/sample were analyzed for green (living cells) and red (dead cells) fluorescence using a FACS Calibur (BD bioscience) instrument. For cell cycle analysis, 10^6 cells were washed in PBS and fixed in ice-cold 70% ethanol for 1 hour. After washing in PBS, cells were re-suspended in Guava cell cycle reagent (Millipore) and incubated at room temperature for 30 minutes. Intercalation of propidium iodide into cellular DNA was quantitated using a FACS Calibur instrument and the data analyzed for cell cycle status using Modfit software.

INS-1 cells [2] = assay: Cell cycle analysis of INS-1 cells (propidium iodide cytometry); format: cell-based
Protocol: as §1, §2

eIF5A-Hyp = assay: New hypusine formation (3H-spermidine incorporation) in mouse islets; format: cell-based; conditions: GC7 125 μM overnight
Text: eIF5A1 and eIF5A2 are the only proteins known to contain the unique amino acid hypusine at position 50. Hypusine is formed as a posttranslational modification of residue Lys50 in a reaction requiring spermidine and catalyzed by the sequential actions of the enzymes deoxyhypusine synthase (DHS) and deoxyhypusine hydroxylase (DOHH) (Chen, K Y, and Liu, A Y. Biochemistry and function of hypusine formation on eukaryotic initiation factor 5A. Biol Signals. 1997; 6(3):105-109). […] To further investigate the mechanism of eIF5A-regulated translation of Nos2, studies were performed following overnight incubation of cells with mimosine (an inhibitor of DOHH) and GC7 (an inhibitor of DHS). […] Similar data using GC7 were obtained in primary mouse islets (data not shown) and in human islets (FIGS. 5F and 5G). […]
Measurement of hvpusination: Approximately 100 islets or 1×10^6 INS-1 cells per condition were incubated with 1.5 μCi ^3H-spermidine (Perkin Elmer) in the presence of 1 mM aminoguanidine. […] Gels were visualized by fluorography, and bands were quantitated using Kodak Molecular Imaging Software v. […]

iNOS [3] = assay: Nitrite release into INS-1 cell medium (Griess reagent); format: cell-based, rat; conditions: increasing GC7 concentrations, cytokines 4 h; greatest inhibition at 125 μM
Text: eIF5A1 and eIF5A2 are the only proteins known to contain the unique amino acid hypusine at position 50. Hypusine is formed as a posttranslational modification of residue Lys50 in a reaction requiring spermidine and catalyzed by the sequential actions of the enzymes deoxyhypusine synthase (DHS) and deoxyhypusine hydroxylase (DOHH) (Chen, K Y, and Liu, A Y. Biochemistry and function of hypusine formation on eukaryotic initiation factor 5A. Biol Signals. 1997; 6(3):105-109). […] To further investigate the mechanism of eIF5A-regulated translation of Nos2, studies were performed following overnight incubation of cells with mimosine (an inhibitor of DOHH) and GC7 (an inhibitor of DHS). […]
Immunoblot and nitrite and iNOS assays: Whole cell extracts were resolved by electrophoresis on a 4-20% SDS-polyacrylamide gel, followed by immunoblot using anti-eIF5A1, anti-eIF5A2, anti-iNOS, anti-GFP, or anti-actin primary antibodies and fluorophore-labeled secondary antibodies. Immunoblots were visualized using the Li-Cor® Odyssey® system (Li-Cor Biosciences) and quantitated by scanning fluorometry using Odyssey Imaging v. […] Nitrite was quantitated by measuring nitric oxide-derived nitrite from INS-1 cell culture medium using the Griess reagent (Promega) according to the manufacturer's recommendations. iNOS activity was measured using a commercially available kit (Cayman).

iNOS [4] = assay: iNOS activity assay (commercial kit); format: biochemical; conditions: GC7 125 μM
Protocol: as §1
Immunoblot and nitrite and iNOS assays: Whole cell extracts were resolved by electrophoresis on a 4-20% SDS-polyacrylamide gel, followed by immunoblot using anti-eIF5A1, anti-eIF5A2, anti-iNOS, anti-GFP, or anti-actin primary antibodies and fluorophore-labeled secondary antibodies. Immunoblots were visualized using the Li-Cor® Odyssey® system (Li-Cor Biosciences) and quantitated by scanning fluorometry using Odyssey Imaging v. 3.0 software (Li-Cor Biosciences). Nitrite was quantitated by measuring nitric oxide-derived nitrite from INS-1 cell culture medium using the Griess reagent (Promega) according to the manufacturer's recommendations. iNOS activity was measured using a commercially available kit (Cayman).

[5] = IL-1β, TNFα, IFNγ for 4 h, compared to controls

| Molecule | GSCa of isolated islets after cytokines (C57BL/6J mouse islets; [5]) | GSIS of isolated islets after cytokines (C57BL/6J mouse islets; [5]) | glucose-stimulated insulin secretion (GSIS) of isolated islets (C57BL/6J mouse islets; islets from siRNA-injected mice, no cytokines) | glucose-stimulated Ca2+ mobilization (GSCa) of isolated islets (C57BL/6J mouse islets; islets from siRNA-injected mice, no cytokines, compared to controls) | percentage of dead cells (INS-1 cells [1]; 125 μM GC7, 3 days exposure) [%] | percentage of dead INS-1 cells (INS-1 cells [1]; GC7 0 to 125 μM, overnight exposure, unaffected by concentration) | cell cycle progression (INS-1 cells [2]; 3 days GC7 exposure) | cell cycle progression (G1-S) (INS-1 cells [2]; overnight GC7, any concentration) | new hypusine formation in mouse islets (eIF5A-Hyp) | nitrite release into the medium (iNOS [3]) | inhibition of iNOS activity (iNOS [4]) |
| --- | --- | --- | --- | --- | --- | --- | --- | --- | --- | --- | --- |
| 5′-AACGGAAUGACUUCCAGCUGA-3′ (siSTABLE modification, further chemistry not given here) [si-eIF5A] | significant preservation | significant preservation | significant improvement in islet response to glucose stimulation | increased |  |  |  |  |  |  |  |
| NCCCCCCCN=C(N)N [GC7] |  |  |  |  | 70 | 4-5% | cell cycle block was clearly apparent | no significant effect on cell cycle progression | effectively inhibits new hypusine formation | dose-dependent attenuation | does not appear to inhibit iNOS activity |
